The series is described as follows: solubility in water. In kind it is physicochemical. The conditions noted are these: 25° C.

In brackets after ≈: the same amount, converted by molar mass.

In the case of `O=S(=O)(CCCC(F)(F)F)Oc1cccc(Oc2cccc3c2C[C@H](CO)C3)c1` [Compound (I), (−)-(R)-3-(2-Hydroxymethylindanyl-4-oxy)phenyl 4,4,4-trifluorobutane-1-sulfonate], the solubility was determined as 2 µg/mL (≈ 4.65 µM).

Values taken from US20110065788A1, “AQUEOUS FORMULATIONS OF (2-HYDROXYMETHYL-INDANYL-4-OXY)-PHENYL-4,4,4-TRIFLUOROBUTANE-1-SULFONATE” (BAYER SCHERING PHARMA AKTIENGESELLSCHAFT, priority 2002, published 2011).
